Source: US12371428B2 (Exelixis, Inc., priority 2019, dated 2025)
Counter-ions that a name gives are not always drawn.

Experiments:
[1] = target: Human KDR (residues 790-1356) (Homo sapiens (Human), UniProt P35968); experiment: Human KDR kinase assay, HTRF KinEase (Example B-2); format: biochemical; details: protocol of Example B-2 (other compounds)
Method in brief: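 Ten compound concentrations (3% DMSO final) were pre-plated, then KDR (790-1356) with biotinylated peptide in Mg/Mn/DTT buffer was added; ATP at Km (4.0 μM) started a 40 min room-temperature reaction. Detection used Eu-TK antibody and SA-XL665 in EDTA buffer; activity normalized to DMSO and reference inhibitor, IC50 by logistic fit.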

[2] = target: KDR (phospho-KDR, VEGF165-stimulated HUVEC cells) (Homo sapiens (Human), UniProt P35968); experiment: KDR autophosphorylation ELISA in HUVEC cells (Example G); format: cell-based; details: cellular activity; KDR autophosphorylation ELISA in HUVEC cells
Chain of KDR (phospho-KDR, VEGF165-stimulated HUVEC cells) (P35968 20-1356): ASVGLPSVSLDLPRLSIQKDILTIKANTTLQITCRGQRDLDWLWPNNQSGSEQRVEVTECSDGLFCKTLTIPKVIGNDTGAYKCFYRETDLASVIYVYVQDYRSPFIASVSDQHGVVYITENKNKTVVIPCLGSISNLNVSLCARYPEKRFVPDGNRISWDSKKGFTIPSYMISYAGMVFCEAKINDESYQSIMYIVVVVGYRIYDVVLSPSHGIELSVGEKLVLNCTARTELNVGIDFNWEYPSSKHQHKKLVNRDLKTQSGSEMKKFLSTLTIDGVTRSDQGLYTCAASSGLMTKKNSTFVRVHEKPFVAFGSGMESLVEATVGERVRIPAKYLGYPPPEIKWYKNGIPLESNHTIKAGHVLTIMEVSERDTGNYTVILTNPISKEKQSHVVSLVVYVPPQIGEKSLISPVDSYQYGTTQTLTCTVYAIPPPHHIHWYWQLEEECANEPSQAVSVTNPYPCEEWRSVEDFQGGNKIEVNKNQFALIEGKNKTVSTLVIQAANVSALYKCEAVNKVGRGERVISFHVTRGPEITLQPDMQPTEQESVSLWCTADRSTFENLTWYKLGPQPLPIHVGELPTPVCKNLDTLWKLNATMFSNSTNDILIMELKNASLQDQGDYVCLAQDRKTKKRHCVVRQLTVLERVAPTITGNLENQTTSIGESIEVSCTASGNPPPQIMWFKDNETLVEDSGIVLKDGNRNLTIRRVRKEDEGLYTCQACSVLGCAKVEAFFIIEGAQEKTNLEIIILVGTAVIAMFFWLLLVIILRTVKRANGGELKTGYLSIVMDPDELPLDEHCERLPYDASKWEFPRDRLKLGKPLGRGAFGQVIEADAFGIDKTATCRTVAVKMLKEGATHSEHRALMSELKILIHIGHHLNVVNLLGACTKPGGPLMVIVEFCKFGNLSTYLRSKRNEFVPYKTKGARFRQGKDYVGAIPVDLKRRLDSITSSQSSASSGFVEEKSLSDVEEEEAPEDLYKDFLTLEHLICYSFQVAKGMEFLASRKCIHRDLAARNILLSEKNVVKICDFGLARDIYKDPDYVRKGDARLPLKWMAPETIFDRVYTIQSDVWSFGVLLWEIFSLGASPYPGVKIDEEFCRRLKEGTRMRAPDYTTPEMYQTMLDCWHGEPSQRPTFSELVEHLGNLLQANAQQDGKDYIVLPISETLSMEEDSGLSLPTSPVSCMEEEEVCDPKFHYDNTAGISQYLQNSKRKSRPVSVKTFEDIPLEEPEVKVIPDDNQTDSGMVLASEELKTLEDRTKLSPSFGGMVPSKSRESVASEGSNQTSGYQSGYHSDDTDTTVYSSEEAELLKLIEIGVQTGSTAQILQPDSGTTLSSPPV
Method in brief: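 Read-out is phospho-KDR measured by ELISA in lysates of VEGF165-stimulated (100 ng/mL, 5 min) HUVEC that were serum-starved 24 h and then pre-exposed 1 h to compound across 8 doses in 0.3% DMSO. Unstimulated lysates defined 0% and stimulated vehicle lysates 100% activity; IC50 values come from 4-parameter logistic regression.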

Chain of Human KDR (residues 790-1356) (P35968 790-1356): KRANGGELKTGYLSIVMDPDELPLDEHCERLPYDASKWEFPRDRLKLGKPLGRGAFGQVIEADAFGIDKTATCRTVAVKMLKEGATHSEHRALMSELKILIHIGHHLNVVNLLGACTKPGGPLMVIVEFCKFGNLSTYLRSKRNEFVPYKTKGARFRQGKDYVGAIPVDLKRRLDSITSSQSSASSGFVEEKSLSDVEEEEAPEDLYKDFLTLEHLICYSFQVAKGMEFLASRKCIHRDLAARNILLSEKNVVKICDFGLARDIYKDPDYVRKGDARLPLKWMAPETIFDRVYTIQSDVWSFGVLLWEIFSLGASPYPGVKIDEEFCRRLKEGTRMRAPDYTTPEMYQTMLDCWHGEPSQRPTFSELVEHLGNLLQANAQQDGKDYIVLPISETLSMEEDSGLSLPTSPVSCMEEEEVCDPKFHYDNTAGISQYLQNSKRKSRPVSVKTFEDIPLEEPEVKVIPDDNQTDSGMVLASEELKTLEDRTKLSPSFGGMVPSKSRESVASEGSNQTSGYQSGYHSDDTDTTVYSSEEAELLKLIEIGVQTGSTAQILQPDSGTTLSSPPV

| SMILES | IC50 [1] [nM] | IC50 [2] [nM] |
| --- | --- | --- |
| COc1cc2nccc(Oc3ccc(NC(=O)C4=C5CCCN5CC(c5ccc(F)cc5)C4=O)cc3F)c2nc1OC (racemic) [Compound 373, N-[4-[(6,7-dimethoxy-1,5-naphthyridin-4-yl)oxy]-3-fluorophenyl]-6-(4-fluorophenyl)-7-oxo-2,3,5,6-tetrahydro-1H-indolizine-8-carboxamide] | > 300 | > 300 |
| COc1cnc2c(Oc3ccc(NC(=O)c4nccn(-c5ccc(F)cc5)c4=O)cc3)ccnc2c1 [Compound 382, 4-(4-fluorophenyl)-N-[4-[(7-methoxy-1,5-naphthyridin-4-yl)oxy]phenyl]-3-oxopyrazine-2-carboxamide] | > 300 | > 300 |
| COc1ccc2nccc(Oc3ccc(NC(=O)c4ncc(C)n(-c5ccc(F)cc5)c4=O)cc3)c2n1 [Compound 378, 4-(4-fluorophenyl)-N-[4-[(6-methoxy-1,5-naphthyridin-4-yl)oxy]phenyl]-5-methyl-3-oxopyrazine-2-carboxamide] | > 300 | > 300 |
| COc1cc2nccc(Oc3ccc(NC(=O)c4cn(C)c(CO)c(-c5ccc(F)cc5C)c4=O)cc3F)c2nc1OC [Compound 282, N-[4-[(6,7-Dimethoxy-1,5-naphthyridin-4-yl)oxy]-3-fluorophenyl]-5-(4-fluoro-2-methylphenyl)-6-(hydroxymethyl)-1-methyl-4-oxopyridine-3-carboxamide] | > 300 | < 100 |
| COc1cnc2c(Oc3ccc(NC(=O)c4cnc(C)n(-c5ccc(F)cc5)c4=O)cc3F)ccnc2c1 [Compound 265, N-[3-Fluoro-4-[(7-methoxy-1,5-naphthyridin-4-yl)oxy]phenyl]-1-(4-fluorophenyl)-2-methyl-6-oxopyrimidine-5-carboxamide] | > 300 | 100 to 300 |
| COc1cc2nccc(Oc3ncc(NC(=O)c4cn(C5CN(C)C5)cc(-c5ccc(F)cc5)c4=O)cc3F)c2cc1OC [Compound 400, N-[6-(6,7-dimethoxyquinolin-4-yl)oxy-5-fluoropyridin-3-yl]-5-(4-fluorophenyl)-1-(1-methylazetidin-3-yl)-4-oxopyridine-3-carboxamide] | > 300 | > 300 |
| Cc1ccc(C(=O)Nc2ccc(Oc3ccnc4ccc(OCCN(C)C)nc34)c(F)c2)c(=O)n1-c1ccc(F)cc1 [Compound 353, N-[4-[[6-[2-(dimethylamino)ethoxy]-1,5-naphthyridin-4-yl]oxy]-3-fluorophenyl]-1-(4-fluorophenyl)-6-methyl-2-oxopyridine-3-carboxamide] | > 300 | < 100 |
| COCc1c(-c2ccc(F)cc2)c(=O)c(C(=O)Nc2ccc(Oc3ccnc4cc(OC)c(OC)nc34)c(F)c2)cn1C [Compound 269, N-[4-[(6,7-Dimethoxy-1,5-naphthyridin-4-yl)oxy]-3-fluorophenyl]-5-(4-fluorophenyl)-6-(methoxymethyl)-1-methyl-4-oxopyridine-3-carboxamide] | > 300 | > 300 |

Next, values leading:

| IC50 [1] [nM] | IC50 [2] [nM] | SMILES |
| --- | --- | --- |
| < 100 | < 100 | COc1ccc2nccc(Oc3ccc(NC(=O)c4c(C)cc(C)n(-c5ccc(F)cc5)c4=O)cc3)c2n1 [Compound 290, 1-(4-Fluorophenyl)-N-[4-[(6-methoxy-1,5-naphthyridin-4-yl)oxy]phenyl]-4,6-dimethyl-2-oxopyridine-3-carboxamide] |
| < 100 | < 100 | COc1cc2nccc(Oc3ccc(NC(=O)c4c(C)ccn(-c5ccc(F)cc5)c4=O)cc3F)c2nc1OC [Compound 286, N-[4-[(6,7-Dimethoxy-1,5-naphthyridin-4-yl)oxy]-3-fluorophenyl]-1-(4-fluorophenyl)-4-methyl-2-oxopyridine-3-carboxamide] |
| > 300 | < 100 | COc1cnc2c(Oc3ccc(NC(=O)c4cn(C)cc(-c5ccccc5)c4=O)cc3F)ccnc2c1 [Compound 40, N-[3-Fluoro-4-[(7-methoxy-1,5-naphthyridin-4-yl)oxy]phenyl]-1-methyl-4-oxo-5-phenylpyridine-3-carboxamide hydrochloride] |
| < 100 | < 100 | COCc1ncc(C(=O)Nc2ccc(Oc3ccnc4cc(OC)c(OC)nc34)c(F)c2)c(O)c1-c1ccc(F)cc1 [Compound 301, N-[4-[(6,7-Dimethoxy-1,5-naphthyridin-4-yl)oxy]-3-fluorophenyl]-5-(4-fluorophenyl)-4-hydroxy-6-(methoxymethyl)pyridine-3-carboxamide] |
| < 100 | < 100 | COc1cc2nccc(Oc3ccc(NC(=O)c4cccn(-c5ccc(F)cc5)c4=O)cc3F)c2nc1OC [Compound 293, N-[4-[(6,7-Dimethoxy-1,5-naphthyridin-4-yl)oxy]-3-fluorophenyl]-1-(4-fluorophenyl)-2-oxopyridine-3-carboxamide] |
| < 100 | < 100 | COc1cc2nccc(Oc3ccc(NC(=O)c4nn(C(C)C)c(C)c(-c5ccc(F)cc5)c4=O)cc3F)c2nc1OC [Compound 364, N-[4-[(6,7-dimethoxy-1,5-naphthyridin-4-yl)oxy]-3-fluorophenyl]-5-(4-fluorophenyl)-6-methyl-4-oxo-1-propan-2-ylpyridazine-3-carboxamide] |
| < 100 | < 100 | COc1cnc2c(Oc3ccc(NC(=O)c4c(C)cc(C)n(-c5ccc(F)cc5)c4=O)cc3F)ccnc2c1 [Compound 280, N-[3-Fluoro-4-[(7-methoxy-1,5-naphthyridin-4-yl)oxy]phenyl]-1-(4-fluorophenyl)-4,6-dimethyl-2-oxopyridine-3-carboxamide] |
| < 100 | < 100 | Cc1ncc(C(=O)Nc2ccc(Oc3ccnc4cc(-c5cnn(C(F)F)c5)ccc34)cc2)c(O)c1-c1ccc(F)cc1 [Compound 377, N-[4-[7-[1-(difluoromethyl)pyrazol-4-yl]quinolin-4-yl]oxyphenyl]-5-(4-fluorophenyl)-4-hydroxy-6-methylpyridine-3-carboxamide] |
| < 100 | < 100 | Cc1ccc2nccc(Oc3ccc(NC(=O)c4c(C)cc(C)n(-c5ccc(F)cc5)c4=O)cc3F)c2n1 [Compound 297, N-[3-Fluoro-4-[(6-methyl-1,5-naphthyridin-4-yl)oxy]phenyl]-1-(4-fluorophenyl)-4,6-dimethyl-2-oxopyridine-3-carboxamide] |
| 100 to 300 | > 300 | CCn1cc(C(=O)Nc2ccc(Oc3ccnc4cc(OC)c(OC)nc34)cc2)c(=O)c(-c2ccc(F)cc2)c1CO [Compound 272, N-[4-[(6,7-Dimethoxy-1,5-naphthyridin-4-yl)oxy]phenyl]-1-ethyl-5-(4-fluorophenyl)-6-(hydroxymethyl)-4-oxopyridine-3-carboxamide] |
| < 100 | < 100 | Cc1nc(C)n(-c2ccc(F)cc2)c(=O)c1C(=O)Nc1ccc(Oc2ccnc3cc(OCc4ccccc4)cnc23)c(F)c1 [Compound 278, 1-(4-Fluorophenyl)-N-[3-fluoro-4-[(7-phenylmethoxy-1,5-naphthyridin-4-yl)oxy]phenyl]-2,4-dimethyl-6-oxopyrimidine-5-carboxamide] |
| 100 to 300 | < 100 | COc1ccc2nccc(Oc3ccc(NC(=O)c4cnc(C)c(-c5ccc(F)cc5)c4O)cc3)c2n1 [Compound 342, 5-(4-fluorophenyl)-4-hydroxy-N-[4-[(6-methoxy-1,5-naphthyridin-4-yl)oxy]phenyl]-6-methylpyridine-3-carboxamide] |
